According to publication PMC10974995 (Pathogens, 2024):
In brackets after ≈: the same amount, converted by molar mass. Read-outs that look alike come from different tables or passages of the source.

Key:
boar sperm [1] = conditions: cited from earlier work
rodents = conditions: in vivo; cited from earlier work
boar sperm [2] = system: boar sperm
[3] = system: PK-15 (porcine kidney epithelial cells) and/or FFL (feline fetus lung cells)
[4] = system: differentiated PK-15 cells
[5] = system: boar sperm and PK-15 cells
boar sperm [6] = experiment: cells
[7] = system: PK-15 (porcine kidney epithelial cells) and/or FFL (feline fetus lung cells); experiment: cells; conditions: Sus scrofa
[8] = system: differentiated PK-15 cells; experiment: cells; conditions: Sus scrofa, PK-15, read-out: Mitochondrial Toxicity 1d (EC50, acceleration of glycolysis and depolarization of mitochondria)
Fish = conditions: cited from earlier work
Rat = conditions: po; cited from earlier work
[9] = 72 h, read-out: EC50 Ex Vivo BSMI 1–3d
[10] = PK-15, 48 h, read-out: EC50 In Vitro ICP 2d

Compound | Ex Vivo BSMI 1–3d, toxic (+) / nontoxic (−), xenobiotic chemicals (boar sperm [2]; pig (boar)) | In Vitro ICP 2d, toxic (+) / nontoxic (−), xenobiotic chemicals [3] | Mitochondrial toxicity after testing with somatic cells [4] | Toxicity profile of pure toxins and chemicals in the BSMI and ICP assays [5] | EC50 (boar sperm [6]; [9]) [µg/mL] | EC50 [7, 10] [µg/mL] | EC50 [8] [µg/mL] | In Vivo (toxicity to experimental animals), xenobiotic chemicals (Fish) | Toxicity In Vivo LD50 Fish (Fish) [mg/L] | Toxicity In Vivo LD50 Rat p.o. (Rat) [mg/kg] | In Vitro ICP 2d, toxic (+) / nontoxic (−), microbial metabolites [3] | In Vivo (toxicity to experimental animals), mycotoxins and fungal metabolites (Rat) | also measured
CC(C)C[C@H]1OC(=O)[C@H](C(C)C)NC(=O)[C@H](C(C)C)OC(=O)[C@@H](C)NC(=O)[C@@H](CC(C)C)OC(=O)[C@H](C(C)C)NC(=O)[C@H](C(C)C)OC(=O)[C@@H](C)NC(=O)[C@@H](CC(C)C)OC(=O)[C@H](C(C)C)NC(=O)[C@H](C(C)C)OC(=O)[C@@H](C)NC1=O [Cereulide] | – | – | – | – | – | – | – | – | – | – | – | – | Toxicity in sperm motility tests (boar sperm [1]): toxic; Toxicity to rodents (rodents): non-toxic
CCCCCCCCCC[N+](C)(C)CCCCCCCCCC [DDAC, Didecyl- dimethyl- ammonium- chloride] | (+) 1 (key: (+): For the xenobiotic chemicals, EC50 values < 10 µg mL^−1 and <20 µg mL^−1 were considered as toxic in the BSMI assay and in the ICP assay, respectively; nontoxic as (−)) | (+) 0.5 (key: (+): For the xenobiotic chemicals, EC50 values < 10 µg mL^−1 and <20 µg mL^−1 were considered as toxic in the BSMI assay and in the ICP assay, respectively; nontoxic as (−)) | Mitochondrial toxicity was recorded | highly toxic in both assays | 1 | 0.5 | 1 | + (key: LD50 Fish Inhaled <10 μg mL ^–1 = Toxic in vivo Marked as +.) | 0.5 | 238 | – | – | –
C[C@@H]1Cc2c(Cl)cc(C(=O)N[C@@H](Cc3ccccc3)C(=O)O)c(O)c2C(=O)O1 [Ochratoxin A] | – | – | – | not detected in our assays | > 50 | > 50 | – | – | – | 20 | (−) >50 | + (key: LD50 rat p.o. <1000 mg kg ^–1 Classified as Toxic in vivo +.) | Ex Vivo BSMI 1–3d, toxic (+) / nontoxic (−), microbial metabolites (boar sperm [2]; pig (boar)): (−) >50
Oc1cc(Cl)ccc1Oc1ccc(Cl)cc1Cl [Triclosan, Triclorooxy-phenylether] | (+) 1 (key: (+): For the xenobiotic chemicals, EC50 values < 10 µg mL^−1 and <20 µg mL^−1 were considered as toxic in the BSMI assay and in the ICP assay, respectively; nontoxic as (−)) | 20 (−) | Mitochondrial toxicity was recorded | – | 1 (≈ 3.45 µM) | 20 (≈ 69.1 µM) | 5 (≈ 17.3 µM) | + (key: LD50 Fish Inhaled <10 μg mL ^–1 = Toxic in vivo Marked as +.) | 0.5 | 3700 | – | – | Sperm motility relative to the negative control (boar sperm [2]): < 20%; EC50 (boar sperm [6]; read-out: EC50 Ex Vivo BSMI, positive controls, mean of 10 or 11 measurements): 1 µg/mL (≈ 3.45 µM); EC50 ([7]; PK-15, read-out: EC50 In Vitro ICP, positive controls, mean of 10 or 11 measurements): 13 µg/mL (≈ 44.9 µM)
Alamethicin | – | – | – | toxic in both the BSMI and ICP tests | – | – | – | – | – | 80 | (+) 6 (key: (+): For the microbial metabolites, EC50 < 5 µg mL^−1 and <10 µg mL^−1 were considered as toxic in the BSMI and ICP assays, respectively; nontoxic as (−)) | + (key: LD50 rat p.o. <1000 mg kg ^–1 Classified as Toxic in vivo +.) | EC50 Ex Vivo BSMI 1–3d (boar sperm [2]): (+) 0.5 μg mL^–1; Ex Vivo BSMI 1–3d, toxic (+) / nontoxic (−), microbial metabolites (boar sperm [2]): (+) 0.5 (key: (+): For the microbial metabolites, EC50 < 5 µg mL^−1 and <10 µg mL^−1 were considered as toxic in the BSMI and ICP assays, respectively; nontoxic as (−)); EC50 In Vitro ICP 2d [3]: (+) 6 μg mL^–1
